Molecular target: T1, HpDnaK (Hsp70) (Helicobacter pylori, UniProt P55994)
T1 construct: gene dnaK; overexpressed and purified full-length protein; native protein in cells for CETSA
T1 sequence (P55994 2-620): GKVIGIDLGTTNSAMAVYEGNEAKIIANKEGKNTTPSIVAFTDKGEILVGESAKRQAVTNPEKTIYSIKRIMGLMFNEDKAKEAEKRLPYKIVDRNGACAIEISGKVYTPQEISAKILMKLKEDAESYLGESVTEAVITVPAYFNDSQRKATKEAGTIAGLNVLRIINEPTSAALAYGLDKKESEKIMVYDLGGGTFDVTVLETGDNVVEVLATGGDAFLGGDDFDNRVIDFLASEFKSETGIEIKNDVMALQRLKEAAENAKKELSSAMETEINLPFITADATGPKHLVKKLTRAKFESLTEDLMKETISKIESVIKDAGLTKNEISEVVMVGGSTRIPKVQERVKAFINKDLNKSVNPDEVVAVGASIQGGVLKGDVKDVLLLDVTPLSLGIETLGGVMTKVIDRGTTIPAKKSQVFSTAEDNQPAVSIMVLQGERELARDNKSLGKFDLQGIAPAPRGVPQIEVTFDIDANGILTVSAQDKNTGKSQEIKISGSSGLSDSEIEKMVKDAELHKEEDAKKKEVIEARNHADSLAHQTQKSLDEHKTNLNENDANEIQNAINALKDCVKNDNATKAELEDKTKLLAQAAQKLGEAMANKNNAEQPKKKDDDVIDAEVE
Test: ATPase assay, released phosphate
Format: biochemical
Settings: no CBS; rate linear within 80 min

Compound: Nc1ncnc2c1ncn2[C@@H]1O[C@H](COP(=O)(O)OP(=O)(O)OP(=O)(O)O)[C@@H](O)[C@H]1O [ATP]
- ATPase assay, released phosphate: rates of ATP hydrolysis measured by monitoring the amounts of released free phosphate

From publication PMC5471454, “Integrative approach for the analysis of the proteome-wide response to bismuth drugs in Helicobacter pylori” (Chemical Science, 2017)
